Measurements: patent publication US9458137B2, “Substituted indol-5-ol derivatives and their therapeutical applications” (NantBioScience, Inc., priority 2012, dated 2016)

Tests used:
Assay in all cases: Kinase panel activity
Type in all cases: biochemical
Settings in all cases: 0.1 μM, ATP Km
[1] = target: ACK1(h) (Homo sapiens, UniProt Q07912)
Experimental: (§1) The effect of NTW-3475 on kinase activity was tested for a wide range of kinases and is shown in Table 2: Summary Sheet, Activity % ATP Concentration: Km

[2] = target: Ab1(Y253F)(h) (Homo sapiens, UniProt P00519, Y253F)
Experimental: as §1

[3] = target: Ax1(h) (Homo sapiens, UniProt P30530)
Experimental: as §1

[4] = target: Bmx(h) (Homo sapiens, UniProt P51813)
Experimental: as §1

[5] = target: BrSK1(h) (Homo sapiens, UniProt Q8TDC3)
Experimental: as §1

[6] = target: CDK5/p35(h) (Homo sapiens, UniProt Q00535)
Experimental: as §1

[7] = target: DDR2(h) (Homo sapiens, UniProt Q16832)
Experimental: as §1

[8] = target: T1, DRAK1(h) (Homo sapiens, UniProt Q9UEE5)
T1 construct: purchased Millipore (KinaseProfiler service)
Experimental: as §1

[9] = target: T2, EGFR(T790M,L858R)(h) (Homo sapiens, UniProt P00533, L858R/T790M)
T2 construct: purchased Millipore (KinaseProfiler service)
Experimental: as §1

[10] = target: T3, EphB2(h) (Homo sapiens, UniProt P29323)
T3 construct: purchased Millipore (KinaseProfiler service)
Experimental: as §1

[11] = target: F1t3(D835Y)(h) (Homo sapiens, UniProt P36888, D835Y)
Experimental: as §1

[12] = target: T4, FGFR1(V561M)(h) (Homo sapiens, UniProt P11362, V561M)
T4 construct: purchased Millipore (KinaseProfiler service)
T4 sequence (P11362 22-822 V561M): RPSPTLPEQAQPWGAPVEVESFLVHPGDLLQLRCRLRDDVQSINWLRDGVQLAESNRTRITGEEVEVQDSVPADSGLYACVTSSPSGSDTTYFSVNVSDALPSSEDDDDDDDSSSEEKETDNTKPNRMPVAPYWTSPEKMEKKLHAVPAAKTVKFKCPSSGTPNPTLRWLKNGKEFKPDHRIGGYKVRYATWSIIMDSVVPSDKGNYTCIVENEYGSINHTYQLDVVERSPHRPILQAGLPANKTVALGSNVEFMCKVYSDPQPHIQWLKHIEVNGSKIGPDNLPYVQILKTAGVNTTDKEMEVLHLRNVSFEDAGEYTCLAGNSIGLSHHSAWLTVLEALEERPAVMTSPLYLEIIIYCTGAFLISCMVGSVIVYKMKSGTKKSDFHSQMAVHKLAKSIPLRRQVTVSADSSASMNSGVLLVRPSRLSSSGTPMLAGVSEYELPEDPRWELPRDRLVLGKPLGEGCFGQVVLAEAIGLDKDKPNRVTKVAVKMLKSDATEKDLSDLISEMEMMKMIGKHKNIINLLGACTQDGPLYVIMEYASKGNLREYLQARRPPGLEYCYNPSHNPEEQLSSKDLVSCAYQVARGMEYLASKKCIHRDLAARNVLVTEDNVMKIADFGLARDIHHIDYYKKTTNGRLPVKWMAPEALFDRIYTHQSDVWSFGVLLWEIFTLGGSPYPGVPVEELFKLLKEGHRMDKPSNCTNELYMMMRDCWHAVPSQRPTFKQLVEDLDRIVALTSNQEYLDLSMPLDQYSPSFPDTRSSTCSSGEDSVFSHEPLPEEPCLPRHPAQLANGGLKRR
Experimental: as §1

[13] = target: T5, FGFR1(h) (Homo sapiens, UniProt P11362)
T5 construct: purchased Millipore (KinaseProfiler service)
T5 sequence (P11362 22-822): as the sequence (P11362 22-822 V561M) above, with M540V counted along it
Experimental: as §1

[14] = target: HIPK3(h) (Homo sapiens, UniProt Q9H422)
Experimental: as §1

[15] = target: Hck(h) activated (Homo sapiens, UniProt P08631)
Experimental: as §1

[16] = target: IGF-1R(h) (Homo sapiens, UniProt P08069)
IGF-1R(h), sequence (P08069 31-1367): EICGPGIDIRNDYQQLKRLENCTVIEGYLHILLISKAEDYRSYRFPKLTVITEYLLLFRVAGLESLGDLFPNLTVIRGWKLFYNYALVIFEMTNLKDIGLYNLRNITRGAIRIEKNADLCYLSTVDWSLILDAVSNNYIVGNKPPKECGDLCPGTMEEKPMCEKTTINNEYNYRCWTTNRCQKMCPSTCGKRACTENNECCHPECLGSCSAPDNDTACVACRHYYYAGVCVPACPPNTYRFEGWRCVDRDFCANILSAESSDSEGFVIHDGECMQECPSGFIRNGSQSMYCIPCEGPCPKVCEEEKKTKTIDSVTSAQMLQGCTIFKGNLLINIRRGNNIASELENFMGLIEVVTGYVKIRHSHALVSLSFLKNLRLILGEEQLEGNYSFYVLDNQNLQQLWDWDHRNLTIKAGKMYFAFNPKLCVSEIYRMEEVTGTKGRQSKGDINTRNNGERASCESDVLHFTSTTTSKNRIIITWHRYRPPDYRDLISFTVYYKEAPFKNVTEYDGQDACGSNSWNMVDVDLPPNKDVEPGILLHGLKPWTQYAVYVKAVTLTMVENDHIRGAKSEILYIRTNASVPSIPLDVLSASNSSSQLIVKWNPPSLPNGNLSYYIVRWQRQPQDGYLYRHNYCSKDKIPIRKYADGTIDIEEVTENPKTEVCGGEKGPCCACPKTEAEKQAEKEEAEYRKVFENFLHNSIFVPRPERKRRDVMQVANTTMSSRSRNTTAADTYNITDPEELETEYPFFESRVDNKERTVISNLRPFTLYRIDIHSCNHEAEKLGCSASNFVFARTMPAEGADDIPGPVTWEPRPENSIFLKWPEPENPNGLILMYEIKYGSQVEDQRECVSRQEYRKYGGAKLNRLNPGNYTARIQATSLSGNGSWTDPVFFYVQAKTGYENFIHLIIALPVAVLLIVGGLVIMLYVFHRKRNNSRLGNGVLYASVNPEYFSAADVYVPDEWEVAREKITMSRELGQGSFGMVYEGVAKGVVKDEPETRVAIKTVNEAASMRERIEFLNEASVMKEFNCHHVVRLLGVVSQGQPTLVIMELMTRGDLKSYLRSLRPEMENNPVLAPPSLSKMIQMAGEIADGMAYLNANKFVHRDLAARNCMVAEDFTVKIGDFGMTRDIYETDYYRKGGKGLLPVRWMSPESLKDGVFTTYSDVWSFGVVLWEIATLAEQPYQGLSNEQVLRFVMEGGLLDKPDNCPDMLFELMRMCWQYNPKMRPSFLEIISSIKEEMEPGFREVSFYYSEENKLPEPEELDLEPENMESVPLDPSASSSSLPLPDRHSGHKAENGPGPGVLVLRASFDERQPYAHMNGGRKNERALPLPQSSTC
Experimental: as §1

[17] = target: IKKα(h) (Homo sapiens, UniProt O15111)
Experimental: as §1

[18] = target: IKKβ(h) (Homo sapiens, UniProt O14920)
Experimental: as §1

[19] = target: IR(h) (Homo sapiens, UniProt P06213)
IR(h), sequence (P06213 28-1382): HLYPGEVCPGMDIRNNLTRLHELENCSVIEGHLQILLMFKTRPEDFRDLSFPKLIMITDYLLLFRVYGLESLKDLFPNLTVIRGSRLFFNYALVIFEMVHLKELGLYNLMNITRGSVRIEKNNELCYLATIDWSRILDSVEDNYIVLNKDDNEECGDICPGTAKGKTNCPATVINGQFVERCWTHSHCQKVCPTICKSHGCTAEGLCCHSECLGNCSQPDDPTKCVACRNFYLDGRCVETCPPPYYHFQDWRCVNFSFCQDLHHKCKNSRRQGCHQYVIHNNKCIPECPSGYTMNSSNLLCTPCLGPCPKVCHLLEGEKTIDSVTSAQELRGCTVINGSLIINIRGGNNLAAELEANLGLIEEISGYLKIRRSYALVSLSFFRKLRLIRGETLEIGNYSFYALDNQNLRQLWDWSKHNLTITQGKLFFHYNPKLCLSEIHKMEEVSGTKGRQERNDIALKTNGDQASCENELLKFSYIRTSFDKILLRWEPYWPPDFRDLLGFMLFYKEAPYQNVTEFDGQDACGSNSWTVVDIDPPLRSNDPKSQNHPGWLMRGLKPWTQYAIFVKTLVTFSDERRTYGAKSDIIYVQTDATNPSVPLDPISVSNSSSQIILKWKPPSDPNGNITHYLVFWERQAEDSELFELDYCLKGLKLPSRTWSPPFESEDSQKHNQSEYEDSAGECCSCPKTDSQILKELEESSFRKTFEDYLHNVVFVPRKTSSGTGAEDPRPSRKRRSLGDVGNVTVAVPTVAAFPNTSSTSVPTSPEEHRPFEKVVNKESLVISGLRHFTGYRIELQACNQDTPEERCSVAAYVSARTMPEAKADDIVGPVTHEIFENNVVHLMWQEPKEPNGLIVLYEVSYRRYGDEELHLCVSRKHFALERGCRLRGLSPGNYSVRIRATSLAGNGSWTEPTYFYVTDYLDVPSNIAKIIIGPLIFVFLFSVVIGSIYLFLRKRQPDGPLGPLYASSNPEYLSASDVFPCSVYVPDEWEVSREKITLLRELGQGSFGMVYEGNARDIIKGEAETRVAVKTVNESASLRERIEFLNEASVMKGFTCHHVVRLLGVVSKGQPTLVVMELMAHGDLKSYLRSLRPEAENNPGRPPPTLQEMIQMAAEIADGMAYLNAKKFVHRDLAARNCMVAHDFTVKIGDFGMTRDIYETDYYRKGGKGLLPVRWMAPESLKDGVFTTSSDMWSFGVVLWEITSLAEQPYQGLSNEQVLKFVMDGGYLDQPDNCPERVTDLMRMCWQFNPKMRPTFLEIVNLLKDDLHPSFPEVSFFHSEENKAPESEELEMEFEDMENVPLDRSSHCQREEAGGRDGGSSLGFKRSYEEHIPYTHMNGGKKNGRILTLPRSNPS
Experimental: as §1

[20] = target: JAK3(h) (Homo sapiens, UniProt P52333)
Experimental: as §1

[21] = target: Lyn(h) (Homo sapiens, UniProt P07948)
Experimental: as §1

[22] = target: MAPK2(m) (Mus musculus, UniProt P63085)
Experimental: as §1

[23] = target: T6, MSK1(h) (Homo sapiens, UniProt O75582)
T6 construct: purchased Millipore (KinaseProfiler service)
Experimental: as §1

[24] = target: T7, MSSK1(h) (Homo sapiens, UniProt Q9UPE1)
T7 construct: purchased Millipore (KinaseProfiler service)
Experimental: as §1

[25] = target: PAR-1Bα(h) (Homo sapiens, UniProt Q7KZI7)
Experimental: as §1

[26] = target: PEK(h) (Homo sapiens, UniProt Q9NZJ5)
Experimental: as §1

[27] = target: PKCα(h) (Homo sapiens, UniProt P17252)
Experimental: as §1

[28] = target: Pim-3(h) (Homo sapiens, UniProt Q86V86)
Experimental: as §1

[29] = target: T8, ROCK-I(h) (Homo sapiens, UniProt Q13464)
T8 construct: purchased Millipore (KinaseProfiler service)
Experimental: as §1

[30] = target: T9, ROCK-II(r) (Rattus norvegicus, UniProt Q62868)
T9 construct: purchased Millipore (KinaseProfiler service)
Experimental: as §1

[31] = target: T10, Ret(h) (Homo sapiens, UniProt P07949)
T10 construct: purchased Millipore (KinaseProfiler service)
Experimental: as §1

[32] = target: T11, Rsk1(h) (Homo sapiens, UniProt Q15418)
T11 construct: purchased Millipore (KinaseProfiler service)
Experimental: as §1

[33] = target: T12, Rsk1(r) (Rattus norvegicus, UniProt Q63531)
T12 construct: purchased Millipore (KinaseProfiler service)
Experimental: as §1

[34] = target: T13, TAO1(h) (Homo sapiens, UniProt Q7L7X3)
T13 construct: purchased Millipore (KinaseProfiler service)
Experimental: as §1

[35] = target: T14, TAO3(h) (Homo sapiens, UniProt Q9H2K8)
T14 construct: purchased Millipore (KinaseProfiler service)
Experimental: as §1

[36] = target: T15, TGFBR1(h) (Homo sapiens, UniProt P36897)
T15 construct: purchased Millipore (KinaseProfiler service)
T15 sequence (P36897 34-503): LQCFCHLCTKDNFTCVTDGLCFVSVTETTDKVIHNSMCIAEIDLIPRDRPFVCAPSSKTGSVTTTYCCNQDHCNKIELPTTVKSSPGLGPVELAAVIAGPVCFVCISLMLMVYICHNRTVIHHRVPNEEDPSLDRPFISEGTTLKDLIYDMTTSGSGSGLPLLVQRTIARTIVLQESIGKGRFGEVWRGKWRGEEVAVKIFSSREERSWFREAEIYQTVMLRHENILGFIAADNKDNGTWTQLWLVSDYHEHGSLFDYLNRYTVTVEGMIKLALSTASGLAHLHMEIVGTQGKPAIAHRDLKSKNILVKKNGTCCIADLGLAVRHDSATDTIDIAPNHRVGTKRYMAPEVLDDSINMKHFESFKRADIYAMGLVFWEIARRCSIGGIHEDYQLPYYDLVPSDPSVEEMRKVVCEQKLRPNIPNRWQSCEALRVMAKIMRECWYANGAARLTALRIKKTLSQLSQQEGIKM
Experimental: as §1

[37] = target: WNK3(h) (Homo sapiens, UniProt Q9BYP7)
Experimental: as §1

[38] = target: Yes(h) (Homo sapiens, UniProt P07947)
Experimental: as §1

[39] = target: cKit(V560G)(h) (Homo sapiens, UniProt P10721, V560G)
Experimental: as §1

`Cc1cc2c(F)c(Oc3nc(Nc4cc(C5CC5)[nH]n4)cc(N4CCN(C)CC4)n3)cc(F)c2[nH]1` [NTW-3475] was tested, and the Activity % [1] was 4%, the Activity % [2] was −2% and the Activity % [3] was 34%. For the same compound, the Activity % [4] was 1%, the Activity % [5] was 53% and the Activity % [6] was 77%. The Activity % [7] was 9%, the Activity % [8] was 51% and the Activity % [9] was 17%. It also gave an Activity % [10] of 21%, an Activity % [11] of 0% and an Activity % [12] of −4%. For the same compound, the Activity % [13] was −1%, the Activity % [14] was 88% and the Activity % [15] was 12%. It also gave an Activity % [16] of 5%, an Activity % [17] of 102% and an Activity % [18] of 109%. It also gave an Activity % [19] of 30%, an Activity % [20] of 3% and an Activity % [21] of 5%. The Activity % [22] was 101%, the Activity % [23] was 104% and the Activity % [24] was 110%. It also gave an Activity % [25] of 15%, an Activity % [26] of 103% and an Activity % [27] of 95%. The Activity % [28] was 99%, the Activity % [29] was 93% and the Activity % [30] was 42%. The Activity % [31] was −1%, the Activity % [32] was 84% and the Activity % [33] was 69%. The Activity % [34] was 65%, the Activity % [35] was 16% and the Activity % [36] was 44%. The Activity % [37] was 86%, the Activity % [38] was 0% and the Activity % [39] was 3%.
